Measured values published in patent US7989466B2, “Methods to inhibit or augment an inflammatory response” (Cambridge Enterprise Limited, priority 1999, dated 2011).
Where two headings read alike, the source gives them in different places. Marks after values point to notes of the source that are not given here. Positions of bridges follow the written chain, without caps; N, C: chain ends. Non-standard residues stand in square brackets, D forms with d. Residues, ends and D or L forms follow the SMILES beside them. No end group written: not given here.

Assays:
[1] = system: chemokine receptors on THP-1 cells; test: Binding to chemokine receptors on THP-1 cells; parameters: species or system human
Description: In general, specific binding is calculated as the amount of labeled agent bound in the absence of cold competitor minus the amount of labeled agent bound in the presence of cold competitor. The amount of specific binding in the presence of varied amounts of cold competitor can be used to determine the association constant for the agent, as well as the number of binding sites on the cell for the agent, using, for example, Scatchard Analysis. The agent may be labeled by radiolabeling (e.g., iodination) or with a suitable biochemical tag (e.g., biotin) or by addition of a photoactivatable crosslinking group. Agents with an association constant lower than 100 μM (i.e., which bind more strongly than an agent with an association constant of 100 μM) and which have at least about 2,500, preferably at least about 10,000, and more preferably greater than 25,000, binding sites per cell for at least one cell type which expresses a chemokine receptor, fall under the scope of this invention. THP-1 cells have at least about 5,000 MCP-1 receptors/cell.
For example, monocytes are suspended in RPMI 1640 medium without bicarbonate containing 0.2% bovine serum albumin and 0.1% azide. Radiolabeled chemokine peptide is incubated with 1-2×10^6 cells, e.g., THP-1 cells, in the presence or absence of increasing concentrations of unlabeled chemokine (MCP-1, MCP-3, MCP-4, RANTES or MIP-1α) for 15 minutes at 37° C. in a 96-well plate in a final volume of 0.2 ml (e.g., PBS+0.5% FCS). After the incubation, 0.5 ml of ice-cold wash buffer (20 mM Tris, 0.5 M NaCl, pH 7.4) is added, and cells are collected onto a polyethyleneimine-treated Whatman GF/C filter using a Brandall cell harvester. Filters are washed with 4 ml of cold wash buffer, and the radioactivity bound to the filters is counted in a γ-counter.
For Scatchard analysis, the absorbance readings at 450 nm were calibrated, by reference to a standard curve in which known amounts of labeled peptide were coupled to derivatized sepharose beads (activated thiol-sepharose 4B; Sigma T8512) via the cysteine residue in each peptide. Briefly, known amounts (1 fmol to 1 pmol) of biotin-labeled peptide were incubated with 1 mg of activated thiol-sepharose beads in 100 μl of PBS at 37° C. for 1 hour. Free activated thiols were then blocked by addition of cysteine to a final concentration of 10 mM. The peptide-conjugated beads were then washed 5 times in PBS and treated exactly as for the cells described above. The absorbance at 450 nm obtained when a known amount of peptide was coupled to the beads was used to construct a standard curve which was used to convert the absorbance readings obtained with cells into number of molecules of labeled peptide which had bound.

[2] = target: T1, Duffy Antigen Receptor for Chemokines (DARC) (Homo sapiens, UniProt Q16570); test: DARC binding: competition with 125I-MCP-1 on red blood cells; conditions: for DUFFY SELECTIVITY, peptide 2 family: ka for binding to red blood cells divided by the ka for binding THP-1 cells
T1 sequence (Q16570 1-336): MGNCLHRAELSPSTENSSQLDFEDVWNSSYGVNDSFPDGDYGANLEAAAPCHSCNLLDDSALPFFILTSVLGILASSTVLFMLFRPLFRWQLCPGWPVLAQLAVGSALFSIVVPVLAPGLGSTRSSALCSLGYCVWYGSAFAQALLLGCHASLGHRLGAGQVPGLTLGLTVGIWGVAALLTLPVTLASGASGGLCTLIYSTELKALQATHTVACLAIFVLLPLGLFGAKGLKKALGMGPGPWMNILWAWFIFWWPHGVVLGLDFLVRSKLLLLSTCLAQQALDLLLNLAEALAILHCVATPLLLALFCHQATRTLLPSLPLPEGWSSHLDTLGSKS

**Q.** Which “association constant for chemokine receptors on THP-1 cells” value (from here on “association constant … on THP-1 cells”) [1] does the source give for `CC[C@@H](C)[C@H]1NC(=O)[C@@H](CCC(N)=O)NC(=O)[C@H](N)CSSC[C@H](C(N)=O)NC(=O)[C@@H](CC(C)C)NC(=O)[C@@H](CC(=O)O)NC(=O)[C@H]2CCCN2C(=O)[C@@H](CCCCN)NC(=O)[C@@H](CCC(N)=O)NC(=O)[C@@H](CCCCN)NC(=O)[C@@H](Cc2c[nH]c3ccccc23)NC1=O` (H-[dC][dQ][dI][dW][dK][dQ][dK][dP][dD][dL][dC]-NH2; disulfide 1-11; N-terminus assumed) here?
**A.** 100 to 500 nM

**Q.** And the “number of binding sites per cell, THP-1 cells” value (shortened to “number … per cell, THP-1 cells”) [1]?
**A.** about 150,000 per cell

**Q.** What about the Kd [2] of the same molecule?
**A.** 90 µM

**Q.** `NCCCC[C@H](NC(=O)[C@H](CCC(N)=O)NC(=O)[C@@H](N)CCCCN)C(=O)O` [KQK] was tested. Which “number … per cell, THP-1 cells” value [1] did it give?
**A.** about 15,000 per cell

**Q.** What about the “association constant … on THP-1 cells” value ([1]; range printed with mixed units) of the same molecule?
**A.** 500 nM-1 μM

**Q.** Which results are given for EICADPKQKWVQ [peptide 3(1-12)[MCP-1]]?
**A.** number of binding sites per cell, THP-1 cells [1]: 1000 per cell; association constant (ka) for binding to THP-1 cells ([1]; listed as Peptide 3): about 10 μM; association constant (ka) for binding to THP-1 cells ([1]; listed as peptide 3): 7 µM; Kd ([1]; read-out: affinity constant for binding to THP-1 cells in the presence of 100 μM peptide 2): 8 µM; DUFFY SELECTIVITY (DARC specificity ratio) ([2]; estimated ka for binding to red blood cells divided by average inhibitory ED50 versus each of the chemokines): 1.0

**Q.** “SYRRITSSKCPKEAV [peptide 2(1-15)[MCP-1]]” was tested. Which “AVERAGE ED50, peptide 2 family: estimated ka for binding to THP-1 cells” value [1] did it give?
**A.** 2^e μM

**Q.** What about the “association constant (ka) for binding to THP-1 cells” value [1] of the same molecule?
**A.** 2 µM

**Q.** What about the “number … per cell, THP-1 cells” value [1] of the same molecule?
**A.** 130,000 per cell

**Q.** What about the “association constant … on THP-1 cells” value ([1]; listed as peptide 2) of the same molecule?
**A.** 250 nM

**Q.** And the “association constant … on THP-1 cells” value ([1]; listed as peptide 2(1-15)[MCP1])?
**A.** 300 nM

**Q.** What about the Kd ([2]; association (affinity) constant for DARC, red blood cells) of the same molecule?
**A.** 100 µM

**Q.** And the Kd ([2]; association constant / affinity for DARC, red blood cells)?
**A.** < 0.5 µM

**Q.** And the “DUFFY SELECTIVITY, peptide 2 family” value [2]?
**A.** 0.1-0.2

**Q.** What about the “DUFFY SELECTIVITY, peptide 2 family” value ([2]; listed as Pep2[MCP1]) of the same molecule?
**A.** 0.18^d
